Tests used:
CAL-51 [1] = details: 72 h
Procedure, shortened: (§1)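 Each 384-well plate was pre-loaded with compound dissolved in 5 µl medium, received breast cancer cells in 20 µl suspension, and was incubated 72 h. A 2.5 µl addition of CellTiter-Blue for 2 h at 37 °C was followed by a fluorescence read at 560/590 nm. Data were normalised per plate to vehicle and a positive kill control and checked by Z'-factor. EC50 was fitted from the percent-inhibition dose-response curve, censored at the highest concentration, excluding rows with a drug sensitivity score of zero.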

MDA-MB-453 [2] = details: 72 h
Procedure, shortened: as §1

CAL-120 [3] = details: 72 h
Procedure, shortened: as §1

HCC1143 [4] = details: 72 h
Procedure, shortened: as §1

Hs578T [5] = details: 72 h
Procedure, shortened: as §1

MDA-MB-231 [6] = details: 72 h
Procedure, shortened: as §1

BT-549 [7] = details: 72 h
Procedure, shortened: (§2)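 EC50 was fitted from dose-response curves and censored at the highest concentration tested. To build those curves, breast cancer cell lines (20 µl suspension) were seeded into 384-well plates containing compound at 5 concentrations in 10-fold steps over a compound-specific 10,000-fold range and incubated for 72 h. Readouts were CellTox Green fluorescence (485/520 nm) for cell death and then CellTiter-Glo luminescence for viability, with each plate normalised to 0.1 % DMSO and a positive kill control.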

CAL-120 [8] = details: 72 h; remark: listed apart in the source
Procedure, shortened: as §2

CAL-51 [9] = details: 72 h; remark: listed apart in the source
Procedure, shortened: as §2

CAL-85-1 [10] = details: 72 h
Procedure, shortened: as §2

DU-4475 [11] = details: 72 h
Procedure, shortened: as §2

HCC1143 [12] = details: 72 h; remark: listed apart in the source
Procedure, shortened: as §2

HCC1599 [13] = details: 72 h
Procedure, shortened: as §2

HCC1937 [14] = details: 72 h
Procedure, shortened: as §2

Hs578T [15] = details: 72 h; remark: listed apart in the source
Procedure, shortened: as §2

MCF-10A [16] = details: 72 h
Procedure, shortened: as §2

MDA-MB-231 [17] = details: 72 h; remark: listed apart in the source
Procedure, shortened: as §2

MDA-MB-436 [18] = details: 72 h
Procedure, shortened: as §2

MDA-MB-453 [19] = details: 72 h; remark: listed apart in the source
Procedure, shortened: as §2

MFM-223 [20] = details: 72 h
Procedure, shortened: as §2

SK-BR-3 [21] = details: 72 h
Procedure, shortened: as §2

BT-549 [22] = details: 72 h; remark: listed apart in the source
Method: (§3)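 Drug sensitivity and resistance testing (DSRT) of breast cancer cell lines in 384-well plates, 5 concentrations in 10-fold dilutions over a compound-specific 10,000-fold range. After 72 h, cytotoxicity was read by CellTox Green fluorescence and viability by CellTiter-Glo luminescence (multiplexed), normalised to DMSO and benzethonium chloride controls. EC50 is the inflection point of the fitted dose-response curve (bottom asymptote free, so it can be relative for partial curves) and is censored at the highest tested concentration. Rows with DSS 0 (no meaningful response) were excluded.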

CAL-51 [23] = details: 72 h; remark: listed apart in the source
Method: as §3

CAL-85-1 [24] = details: 72 h; remark: listed apart in the source
Method: as §3

HDQ-P1 [25] = details: 72 h
Method: as §3

Hs578T [26] = details: 72 h; remark: listed apart in the source
Method: as §3

MCF-10A [27] = details: 72 h; remark: listed apart in the source
Method: as §3

MDA-MB-231 [28] = details: 72 h; remark: listed apart in the source
Method: as §3

MDA-MB-453 [29] = details: 72 h; remark: listed apart in the source
Method: as §3

MDA-MB-468 [30] = details: 72 h
Method: as §3

MFM-223 [31] = details: 72 h; remark: listed apart in the source
Method: as §3

HDQ-P1 [32] = assay: drug sensitivity score (DSS), CellTox Green (DSS (AUC-based score)); higher = stronger drug effect (viability inhibition or cytotoxicity); extreme values may be limits of the assay; details: incubation time: 72 h
Procedure, shortened: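 Breast cancer cells were seeded into 384-well plates containing compound at 5 concentrations in 10-fold steps over a compound-specific 10,000-fold range and incubated 72 h. After CellTox Green and CellTiter-Glo readings, each plate was normalised to 0.1 % DMSO and a positive kill control. The drug sensitivity score rests on the area under the fitted dose-response curve.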

CAL-148 [33] = details: 72 h
Procedure, shortened: as §2

CAL-85-1 [34] = details: 72 h; remark: listed apart in the source
Procedure, shortened: as §1

DU-4475 [35] = details: 72 h; remark: listed apart in the source
Procedure, shortened: as §1

HDQ-P1 [36] = details: 72 h; remark: listed apart in the source
Procedure, shortened: as §1

BT-474 [37] = details: 72 h
Procedure, shortened: as §1

BT-549 [38] = details: 72 h; remark: listed apart in the source
Procedure, shortened: as §1

HCC1937 [39] = details: 72 h; remark: listed apart in the source
Procedure, shortened: as §1

MDA-MB-436 [40] = details: 72 h; remark: listed apart in the source
Procedure, shortened: as §1

MDA-MB-468 [41] = details: 72 h; remark: listed apart in the source
Procedure, shortened: as §1

SK-BR-3 [42] = details: 72 h; remark: listed apart in the source
Procedure, shortened: as §1

BT-474 [43] = details: 72 h; remark: listed apart in the source
Method: as §3

CAL-120 [44] = details: 72 h; remark: listed apart in the source
Method: as §3

CAL-148 [45] = details: 72 h; remark: listed apart in the source
Procedure, shortened: as §1

HCC1599 [46] = details: 72 h; remark: listed apart in the source
Procedure, shortened: as §1

MFM-223 [47] = details: 72 h; remark: listed apart in the source
Procedure, shortened: as §1

CAL-148 [48] = details: 72 h; remark: listed apart in the source
Method: as §3

HCC1937 [49] = details: 72 h; remark: listed apart in the source
Method: as §3

| EC50, CellTiter-Blue viability (MDA-MB-453 [2]) [nM] | EC50, CellTiter-Blue viability (HCC1143 [4]) [nM] | EC50, CellTiter-Blue viability (MDA-MB-231 [6]) [nM] | EC50, CellTiter-Glo (BT-549 [7]) [nM] | EC50, CellTiter-Glo (HCC1143 [12]) [nM] | EC50, CellTiter-Glo (MDA-MB-231 [17]) [nM] | EC50, CellTiter-Glo (MDA-MB-436 [18]) [nM] | EC50, CellTiter-Glo (MDA-MB-453 [19]) [nM] | EC50, CellTiter-Glo (SK-BR-3 [21]) [nM] | SMILES | EC50, CellTiter-Blue viability (CAL-51 [1]) [nM] | EC50, CellTiter-Blue viability (CAL-120 [3]) [nM] | EC50, CellTiter-Blue viability (Hs578T [5]) [nM] | EC50, CellTiter-Glo (CAL-120 [8]) [nM] | EC50, CellTiter-Glo (CAL-51 [9]) [nM] | EC50, CellTiter-Glo (CAL-85-1 [10]) [nM] | EC50, CellTiter-Glo (DU-4475 [11]) [nM] | EC50, CellTiter-Glo (Hs578T [15]) [nM] | EC50, CellTiter-Glo (MFM-223 [20]) [nM] | EC50, CellTox Green (CAL-51 [23]) [nM] | drug sensitivity score (HDQ-P1 [32]) | other results |
| --- | --- | --- | --- | --- | --- | --- | --- | --- | --- | --- | --- | --- | --- | --- | --- | --- | --- | --- | --- | --- | --- |
| 102 | 9920 | 460 |  |  |  |  |  |  | CC(=O)c1c(C)c2cnc(Nc3ccc(N4CCNCC4)cn3)nc2n(C2CCCC2)c1=O | 1170 | 12.8 | 7700 |  |  |  |  |  |  |  |  |  |
|  |  |  | 397 | 1730 | 1410 | 1430 | 109 | 193 | Cn1cc(C2=Nc3cc(NC(=O)C(N)C4CCCCC4)cc4c3C2=CNNC4=O)cn1 (stereo not given) |  |  |  | 5050 | 2380 | 293 | 9440 | 387 | 109 | 1130 | 7.95 | EC50, CellTiter-Glo (HCC1599 [13]): 130 nM; EC50, CellTiter-Glo (HCC1937 [14]): 3870 nM; EC50, CellTiter-Glo (MCF-10A [16]): 2700 nM; EC50, CellTox Green (BT-549 [22]): 7370 nM; EC50, CellTox Green (CAL-85-1 [24]): 88.9 nM; EC50, CellTox Green (HDQ-P1 [25]): 1000 nM; EC50, CellTox Green (Hs578T [26]): 9610 nM; EC50, CellTox Green (MCF-10A [27]): 89.5 nM; EC50, CellTox Green (MDA-MB-231 [28]): 255 nM; EC50, CellTox Green (MDA-MB-453 [29]): 7250 nM; EC50, CellTox Green (MDA-MB-468 [30]): 5280 nM; EC50, CellTox Green (MFM-223 [31]): 3030 nM |
| 552 | 5620 | 432 | 251 | 1300 | 938 | 1060 | 543 | 3130 | COc1cc2c(cc1O)CC[C@@H]1[C@@H]2CC[C@]2(C)[C@@H](O)CC[C@@H]12 [2-methoxyestradiol] | 2450 | 1510 | 1210 | 1020 | 4930 | 2220 | 4530 | 1400 | 1830 | 4060 | 0 | EC50, CellTiter-Glo (CAL-148 [33]): 7660 nM; EC50, CellTiter-Glo (HCC1599 [13]): 6410 nM; EC50, CellTiter-Blue viability (CAL-85-1 [34]): 1280 nM; EC50, CellTiter-Blue viability (DU-4475 [35]): 1730 nM; EC50, CellTiter-Blue viability (HDQ-P1 [36]): 4220 nM; EC50, CellTiter-Blue viability (BT-474 [37]): 747 nM; EC50, CellTiter-Blue viability (BT-549 [38]): 1020 nM; EC50, CellTiter-Blue viability (HCC1937 [39]): 820 nM; EC50, CellTiter-Blue viability (MDA-MB-436 [40]): 697 nM; EC50, CellTiter-Blue viability (MDA-MB-468 [41]): 3190 nM; EC50, CellTiter-Blue viability (SK-BR-3 [42]): 5800 nM; EC50, CellTox Green (BT-474 [43]): 370 nM; EC50, CellTox Green (BT-549 [22]): > 10000 nM; EC50, CellTox Green (CAL-120 [44]): 6410 nM; EC50, CellTox Green (Hs578T [26]): 1820 nM; EC50, CellTox Green (MDA-MB-231 [28]): 756 nM; EC50, CellTox Green (MFM-223 [31]): 660 nM |

| SMILES | EC50, CellTiter-Blue viability (MDA-MB-453 [2]) [nM] | EC50, CellTiter-Blue viability (HCC1143 [4]) [nM] | EC50, CellTiter-Blue viability (MDA-MB-231 [6]) [nM] | EC50, CellTiter-Glo (BT-549 [7]) [nM] | EC50, CellTiter-Glo (HCC1143 [12]) [nM] | EC50, CellTiter-Glo (MDA-MB-231 [17]) [nM] | EC50, CellTiter-Glo (MDA-MB-436 [18]) [nM] | EC50, CellTiter-Glo (MDA-MB-453 [19]) [nM] | EC50, CellTiter-Glo (SK-BR-3 [21]) [nM] | EC50, CellTiter-Blue viability (CAL-51 [1]) [nM] | EC50, CellTiter-Blue viability (CAL-120 [3]) [nM] | EC50, CellTiter-Blue viability (Hs578T [5]) [nM] | EC50, CellTiter-Glo (CAL-120 [8]) [nM] | EC50, CellTiter-Glo (CAL-51 [9]) [nM] | EC50, CellTiter-Glo (CAL-85-1 [10]) [nM] | EC50, CellTiter-Glo (DU-4475 [11]) [nM] | EC50, CellTiter-Glo (Hs578T [15]) [nM] | EC50, CellTiter-Glo (MFM-223 [20]) [nM] | EC50, CellTox Green (CAL-51 [23]) [nM] | drug sensitivity score (HDQ-P1 [32]) | other results |
| --- | --- | --- | --- | --- | --- | --- | --- | --- | --- | --- | --- | --- | --- | --- | --- | --- | --- | --- | --- | --- | --- |
| Cc1sc2c(c1C)C(c1ccc(Cl)cc1)=N[C@@H](CC(=O)OC(C)(C)C)c1nnc(C)n1-2 [(+)JQ1] | 172 | 354 | 265 | 167 | 753 | 653 | 749 | 447 | 494 | 1040 | 114 | 122 | 231 | 7440 | 316 | 956 | 126 | 481 | 2330 | 0 | EC50, CellTiter-Glo (CAL-148 [33]): 920 nM; EC50, CellTiter-Glo (HCC1937 [14]): 720 nM; EC50, CellTiter-Glo (MCF-10A [16]): 254 nM; EC50, CellTiter-Blue viability (CAL-148 [45]): 676 nM; EC50, CellTiter-Blue viability (CAL-85-1 [34]): 254 nM; EC50, CellTiter-Blue viability (DU-4475 [35]): 339 nM; EC50, CellTiter-Blue viability (BT-549 [38]): 320 nM; EC50, CellTiter-Blue viability (HCC1599 [46]): 406 nM; EC50, CellTiter-Blue viability (HCC1937 [39]): 468 nM; EC50, CellTiter-Blue viability (MDA-MB-468 [41]): 871 nM; EC50, CellTiter-Blue viability (MFM-223 [47]): 243 nM; EC50, CellTiter-Blue viability (SK-BR-3 [42]): 337 nM; EC50, CellTox Green (CAL-148 [48]): 687 nM; EC50, CellTox Green (CAL-85-1 [24]): 2020 nM; EC50, CellTox Green (HCC1937 [49]): 10 nM; EC50, CellTox Green (MDA-MB-468 [30]): 1830 nM |

From the supplement of paper PMC4862054
